For 24 compounds, IC50 results are on record in US7612089B2, “Tetrahydroisoquinolines as factor Xa inhibitors” (Portola Pharmaceuticals, Inc., priority 2004, dated 2009).

The structures appear in SMILES notation. pIC50: −log10 of the molar value. Some results are limits rather than exact numbers.

The target of this experiment is T1, human plasma protein factor Xa (Homo sapiens, UniProt P00742).
T1 construct: The human plasma protein factor Xa was purchased; purchased Haematologic Technologies (Essex Junction, Vt.); host or cells: human plasma
Briefly: Factor Xa IC50 determination (cleavage of paranitroanilide substrate S-2765). It counts as biochemical. Particulars: fXa 1 nM, S2765 100 μM, Tris buffered saline pH 7.4, room temperature. An excerpt:
This example illustrates methods for evaluating the compounds of the invention, along with results obtained for such assays. The in vitro and in vivo Factor Xa isoform activities of the inventive compounds can be determined by various procedures known in the art, such as a test for their ability to inhibit the activity of the Factor Xa isoform. […] The IC50 value is the concentration (in nM) of the compound required to provide 50% inhibition of Factor Xa isoform.
An in vitro assay for detecting and measuring inhibition activity against Factor Xa is as follows:
IC50 and Ki Determinations:
The substrate S-2765 (Z-D-Arg-Gly-Arg-pNA.HCl) was obtained from Diapharma (West Chester, Ohio).
The human plasma protein factor Xa was purchased from Haematologic Technologies (Essex Junction, Vt.).
All assays, which are performed in 96-well microtiter plates, measure proteolytic activity of the enzyme (factor Xa) by following cleavage of paranitroanilide substrate. The assay buffer used for proteolytic assays was Tris buffered saline (20 mM Tris, 150 mM NaCl, 5 mM CaCl2, 0.1% Bovine serum albumin (BSA), 5% Dimethly Sulfoxide (DMSO) pH 7.4). In a 96-well microtiter plate, inhibitor was serially diluted to give a range of concentrations from 0.01 nM to 10 μM (final). Duplicate sets of wells were assayed and control wells without inhibitor were included. Enzyme was added to each well, (fXa concentration=1 nM), the plate was shaken for 5 seconds and then incubated for 5 minutes at room temperature. S2765 was added (100 μM final) and the plate was shaken for 5 seconds (final liquid volume in each well was 200 μl). The degree of substrate hydrolysis was measured at 405 nm on a Thermomax plate reader (Molecular Devices, Sunnyvale, Calif.) for 2 minutes. The initial velocities (mOD/min), for each range of inhibitor concentrations, were fitted to a four parameter equation using Softmax data analysis software. The parameter C, derived from the resulting curve-fit, corresponded to the concentration for half maximal inhibition (IC50).

T1 sequence (P00742 235-488 limits assumed): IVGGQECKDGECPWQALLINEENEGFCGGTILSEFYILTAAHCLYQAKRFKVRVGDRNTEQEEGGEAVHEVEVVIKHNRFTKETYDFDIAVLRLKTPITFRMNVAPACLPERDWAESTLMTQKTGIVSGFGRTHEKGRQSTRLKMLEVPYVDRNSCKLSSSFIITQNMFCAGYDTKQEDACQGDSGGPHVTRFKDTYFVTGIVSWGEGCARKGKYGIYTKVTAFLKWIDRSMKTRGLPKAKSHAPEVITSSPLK
T1 sequence (P00742 41-179 partner limits assumed): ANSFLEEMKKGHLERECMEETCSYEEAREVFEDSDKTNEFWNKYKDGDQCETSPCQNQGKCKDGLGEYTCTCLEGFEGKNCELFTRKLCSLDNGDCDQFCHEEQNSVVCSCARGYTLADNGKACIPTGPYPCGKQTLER

What is called pIC50 is the negative decadic logarithm of the IC50, by convention in mol/L. A higher pIC50 goes with a small IC50. With `CN(C)C(=N)c1ccc(NC(=O)C2Cc3sccc3CN2C(=O)Nc2ccc(Cl)cc2)cc1` (stereo not drawn) [Example 26, N-[4-(dimethylaminoimino)phenyl]-5N-(4-chlorophenylaminocarbonyl)-4,5,6,7-tetrahydro-thieno[3,2-c]pyridine-6-carboxamide], the pIC50 was no less than 7.00. The compound `CN1CCCN(c2ccc(NC(=O)C3Cc4sccc4CN3C(=O)Nc3ccc(Cl)cc3)cc2)CC1` (stereo not drawn) [Example 27, N-[4-(4-methyl-homopiperazinyl)]phenyl-5N-(4-chlorophenylaminocarbonyl)-4,5,6,7-tetrahydro-thieno[3,2-c]pyridine-6-carboxamide] showed a negative logarithm of the IC50 (pIC50) of no less than 7.00.

For the compound `CN1CCN=C1c1ccc(NC(=O)C2c3ccccc3CN2C(=O)Nc2ccc(Cl)cc2)cc1` (stereo not drawn) [Example 28, N-[4-(1-methyl-4,5-dihydro-1H-imidazol-2-yl)phenyl]-2N-(4-chlorophenylaminocarbonyl)-2,3-dihydro-1H-isoindole-1-carboxamide], the negative-log IC50 (pIC50) was no less than 7.00. Compound `O=C(Nc1ccc(-c2cccc[n+]2[O-])cc1)C1c2ccccc2CN1C(=O)Nc1ccc(Cl)cc1` (stereo not drawn) [Example 29, N-[4-(1N-oxo-pyridin-2-yl)phenyl]-2N-(4-chlorophenylaminocarbonyl)-2,3-dihydro-1H-isoindole-1-carboxamide] gave a pIC50 of no less than 7.00.

As to `CN1CCCN(c2ccc(NC(=O)C3c4ccccc4CN3C(=O)Nc3ccc(Cl)cc3)cc2)CC1` (stereo not drawn) [Example 30, N-[4-(4-methyl-homopiperazinyl)phenyl]-2N-(4-chlorophenylaminocarbonyl)-2,3-dihydro-1H-isoindole-1-carboxamide], the pIC50 is 6.30 to 7.00. With `O=C(Nc1ccc(N2CCOCC2=O)cc1)C1c2ccccc2CN1C(=O)Nc1ccc(Cl)cc1` (stereo not drawn) [Example 31, N-[4-(3-oxo-morpholin-4-yl)phenyl]-2N-(4-chlorophenylaminocarbonyl)-2,3-dihydro-1H-isoindole-1-carboxamide] the figure was no less than 7.00; with `O=C(Nc1ccc(-c2cccc[n+]2[O-])cc1)C1Cc2ccccc2N1C(=O)Nc1ccc(Cl)cc1` (stereo not drawn) [Example 32, N-[4-(1N-oxo-pyridin-2-yl)phenyl]-1N-(4-chlorophenylaminocarbonyl)-indoline-2-carboxamide], 6.30 to 7.00. Turning to `CN1CCCN(c2ccc(NC(=O)[C@H]3Cc4ccccc4CN3C(=O)Nc3ccc(Cl)cc3)cc2)CC1` [Example 33, (3R) N-[4-(4-methyl-homopiperazinyl)]phenyl-2N-(4-chlorophenylaminocarbonyl)-1,2,3,4-tetrahydroisoquinoline-3-carboxamide], the pIC50 was no less than 7.00. For `CN1CCCN(c2ccc(NC(=O)[C@@H]3Cc4ccccc4CN3C(=O)Nc3ccc(Cl)cc3)cc2)CC1` [Example 34, (3S)N-[4-(4-methyl-homopiperazinyl)]phenyl-2N-(4-chlorophenylaminocarbonyl)-1,2,3,4-tetrahydroisoquinoline-3-carboxamide], the negative-log IC50 (pIC50) was 6.30 to 7.00. Compound `CN1CCCN(c2ccc(NC(=O)[C@H]3Cc4ccccc4CN3C(=O)Nc3ccc(Cl)cc3)c(F)c2)CC1` [Example 35, (3R) N-[4-(4-methyl-homopiperazinyl)-2-fluorophenyl]-2N-(4-chlorophenylaminocarbonyl)-1,2,3,4-tetrahydroisoquinoline-3-carboxamide] had a pIC50 of no less than 7.00. Take `O=C(Nc1ccc(-n2ccccc2=O)cc1)[C@H]1Cc2ccccc2CN1C(=O)Nc1ccc(Cl)cc1` [Example 36, (3R) N-[4-(2-pyridon-1-yl)phenyl]-2N-(4-chlorophenylaminocarbonyl)-1,2,3,4-tetrahydroisoquinoline-3-carboxamide]: the pIC50 was no less than 7.00. `O=C(Nc1ccc(-n2ccccc2=O)cc1)[C@@H]1Cc2ccccc2CN1C(=O)Nc1ccc(Cl)cc1` [Example 37, (3S)N-[4-(2-pyridon-1-yl)phenyl]-2N-(4-chlorophenylaminocarbonyl)-1,2,3,4-tetrahydroisoquinoline-3-carboxamide] showed a pIC50 of no less than 7.00. With `O=C(Nc1ccc(-n2ccccc2=O)cc1F)[C@H]1Cc2ccccc2CN1C(=O)Nc1ccc(Cl)cc1` [Example 38, (3R) N-[4-(2-pyridon-1-yl)-2-fluorophenyl]-2N-(4-chlorophenylaminocarbonyl)-1,2,3,4-tetrahydroisoquinoline-3-carboxamide] the figure was no less than 7.00; with `O=C(Nc1ccc(-n2ccccc2=O)cc1)C1Cc2cc(O)ccc2CN1C(=O)Nc1ccc(Cl)cc1` (stereo not drawn) [Example 39, N-[4-(2-pyridon-1-yl)phenyl]-2N-(4-chlorophenylaminocarbonyl)-6-hydroxy-1,2,3,4-tetrahydroisoquinoline-3-carboxamide], no less than 7.00; with `CN1CCCN(c2ccc(NC(=O)C3Cc4cc(O)ccc4CN3C(=O)Nc3ccc(Cl)cc3)cc2)CC1` (stereo not drawn) [Example 40, N-[4-(4-methyl-homopiperazinyl)phenyl]-2N-(4-chlorophenylaminocarbonyl)-6-hydroxy-1,2,3,4-tetrahydroisoquinoline-3-carboxamide], no less than 7.00. Turning to `O=C(Nc1ccc(-n2ccccc2=S)cc1)C1Cc2cc(O)ccc2CN1C(=O)Nc1ccc(Cl)cc1` (stereo not drawn) [Example 41, N-[4-(2-thiopyridon-1-yl)phenyl]-2N-(4-chlorophenylaminocarbonyl)-6-hydroxy-1,2,3,4-tetrahydroisoquinoline-3-carboxamide], the pIC50 was no less than 7.00.

For `O=C([C@H]1Cc2ccccc2CN1C(=O)Nc1ccc(Cl)cc1)N1CCC(N2CCCCC2=O)CC1` [Example 42, (3R) 4-(2-piperidinon-1-yl)piperidin-1-yl 2N-(4-chlorophenylaminocarbonyl)-1,2,3,4-tetrahydroisoquinoline-3-carboxamide], the pIC50 was no less than 7.00. With `O=C([C@H]1Cc2ccccc2CN1C(=O)Nc1ccc(Cl)cc1)N1CCC(n2ccccc2=O)CC1` [Example 43, (3R) 4-(2-pyridon-1-yl)piperidin-1-yl 2N-(4-chlorophenylaminocarbonyl)-1,2,3,4-tetrahydroisoquinoline-3-carboxamide] the figure was no less than 7.00; with `O=C([C@H]1Cc2ccccc2CN1C(=O)Nc1ccc(Cl)cc1)N1CCC(N2CCOCC2=O)CC1` [Example 44, (3R) 4-(3-morpholinon-4-yl)piperidin-1-yl 2N-(4-chlorophenylaminocarbonyl)-1,2,3,4-tetrahydroisoquinoline-3-carboxamide], no less than 7.00; with `CN1CCN(c2ccc(NC(=O)[C@H]3Cc4ccccc4CN3C(=O)Nc3ccc(Cl)cc3)cc2)C(=O)C1` [Example 45, (3R) N-[4-(4-methyl-2-piperazinon-1-yl)phenyl]-2N-(4-chlorophenylaminocarbonyl)-1,2,3,4-tetrahydroisoquinoline-3-carboxamide], 6.30 to 7.00. `CN1CCCN(c2ccc(NC(=O)[C@H]3Cc4ccccc4CN3C(=O)Nc3ccc(Cl)cc3)cc2)C(=O)C1` [Example 46, (3R) N-[4-(4-methyl-2-homopiperazinon-1-yl)phenyl]-2N-(4-chlorophenylaminocarbonyl)-1,2,3,4-tetrahydroisoquinoline-3-carboxamide] gave a pIC50 of no less than 7.00. In turn, `O=C(Nc1ccc(-n2ccccc2=O)cc1)[C@H]1Cc2ccccc2CN1C(=O)Nc1ccc(F)cc1` [Example 47, (3R) N-[4-(2-pyridon-1-yl)phenyl]-2N-(4-fluorophenylaminocarbonyl)-1,2,3,4-tetrahydroisoquinoline-3-carboxamide] gave a pIC50 of no less than 7.00. In the case of `O=C(Nc1ccc(-n2ccccc2=O)cc1)[C@H]1Cc2ccccc2CN1C(=O)Nc1ccc(Cl)s1` [Example 48, (3R) N-[4-(2-pyridon-1-yl)phenyl]-2N-[5-(2-chlorothiophene)aminocarbonyl]-1,2,3,4-tetrahydroisoquinoline-3-carboxamide] it was no less than 7.00.

`CN1CCCN(c2ccc(NC(=O)[C@H]3Cc4ccccc4CN3C(=O)Nc3ccc(Cl)s3)cc2)CC1` [Example 49, (3R) N-[4-(4-methyl-homopiperazin-1-yl)phenyl]-2N-[5-(2-chlorothiophene)aminocarbonyl]-1,2,3,4-tetrahydroisoquinoline-3-carboxamide] had a pIC50 of no less than 7.00.
